According to patent publication US8604068B2, “Insecticidal compositions of 2-cyanobenzene sulfonamide compounds and isomeric forms thereof having improved effect” (Bayer CropScience AG, priority 2007, dated 2013):

Assays:
Assay type in all cases: in vivo
[1] = system: green peach aphid (Myzus persicae); assay: Myzus persicae test (MYZUPE), ammonium salts in combination with penetration enhancers (Example C); details: for Kill rate/% after 6 days, +AS (1000 ppm) / Kill rate/% after 6 days, +RME (1000 ppm) / Kill rate/% after 6 days, +RME + AS (each 1000 ppm) / Kill rate/% after 6 days, a.i.: Table C1
Protocol: (§1) Myzus persicae—Test (MYZUPE)
(§2) For the preparation of a suitable active substance preparation, 1 part by weight of active substance is mixed with the stated quantities of solvent and emulsifier and the concentrate is diluted to the desired concentration with emulsifier-containing water. When addition of ammonium salts, penetration enhancers or ammonium salts and penetration enhancers is necessary, these are in each case pipetted into the finished preparation solution in a concentration of 1000 ppm after dilution.
Paprika plants (Capsicum annuum) which are severely infested with the green peach aphid (Myzus persicae) are treated by spraying with the active substance preparation in the desired concentration.
(§3) After the desired time, the kill rate in % is determined. Here 100% means that all the animals were killed; 0% means that no animals were killed.

[2] = system: green peach aphid (Myzus persicae); assay: Myzus persicae test (MYZUPE), activity increase due to ammonium salts (Example A); details: sprayed paprika plants; for Kill rate/% after 6 days, a.i.: no additive
Protocol: as §1
(§4) For the preparation of a suitable active substance preparation, 1 part by weight of active substance is mixed with the stated quantities of solvent and emulsifier and the concentrate is diluted to the desired concentration with emulsifier-containing water. When addition of ammonium salts is necessary, these are in each case pipetted into the finished preparation solution in a concentration of 1000 ppm after dilution.
Paprika plants (Capsicum annuum) which are severely infested by the green peach aphid (Myzus persicae) are treated by spraying with the active substance preparation in the desired concentration.
as §3

[3] = system: cotton aphid (Aphis gossypii); assay: Aphis gossypii test (APHIGO), ammonium salts in combination with penetration enhancers (Example D)
Protocol: (§5) Aphis gossypii-Test (APHIGO)
as §2
(§6) Cotton leaves (Gossypium hirsutum) which are severely infested with the cotton aphid (Aphis gossypii) are sprayed with an active substance preparation with the desired concentration.
(§7) After the desired time, the kill rate in % is determined. Here 100% means that all the aphids were killed; 0% means that no aphids were killed.

[4] = system: cotton aphid (Aphis gossypii); assay: Aphis gossypii test (APHIGO), activity increase due to ammonium salts (Example B); details: sprayed cotton leaves
Protocol: as §5, §4, §6, §7

[5] = system: common spider mite (Tetranychus urticae); assay: Tetranychus test (OP-resistant), activity increase due to ammonium salts (Example E); details: sprayed bean plants
Protocol: Tetranychus-Test (OP-Resistant)
as §4
Bean plants (Phaseolus vulgaris) which are severely infested by all stages of the common spider mite (Tetranychus urticae) are treated by spraying with the active substance preparation in the desired concentration.
After the desired time, the kill rate in % is determined. here 100% means that all the spider mites were killed; 0% means that no spider mites were killed.

[6] = active substance 4 ppm + ammonium sulfate 1000 ppm
[7] = active substance 20 ppm + ammonium sulfate 1000 ppm
[8] = active substance 20 ppm + rape oil methyl ester 1000 ppm
[9] = active substance 20 ppm + rape oil methyl ester and ammonium sulfate, each 1000 ppm
[10] = active substance 20 ppm, no additive
[11] = active substance 4 ppm, no additive

SMILES: COc1cccc(S(=O)(=O)N(C)C)c1C#N [Example 215]
- Kill rate/% after 7 days, +AS (1000 ppm) ([1]; Table C2, active substance 60 g/ha + ammonium sulfate 1000 ppm, emulsifier 1 part): 20%
- Kill rate/% after 7 days, +RME (1000 ppm) ([1]; Table C2, active substance 60 g/ha + rape oil methyl ester 1000 ppm, emulsifier 1 part): 40%
- Kill rate/% after 7 days, +RME + AS (each 1000 ppm) ([1]; Table C2, active substance 60 g/ha + rape oil methyl ester and ammonium sulfate, each 1000 ppm, emulsifier 1 part): 75%
- Kill rate/% after 7 days, a.i. ([1]; Table C2, active substance 60 g/ha, no additive, emulsifier 1 part): 0%

SMILES: COc1cccc2c1C(N)=NS2(=O)=O [Example 45-B]
- Kill rate/% after 6 days, +AS (1000 ppm) [2, 6]: 60%
- Kill rate/% after 6 days, a.i. ([2]; active substance 4 ppm): 35%

SMILES: C#CCNS(=O)(=O)c1cccc(OC)c1C#N [Example 42]
- Kill rate/% after 6 days, +AS (1000 ppm) [2, 7]: 20%
- Kill rate/% after 6 days, a.i. ([2]; active substance 20 ppm): 5%
- Kill rate/% after 6 days, +AS (1000 ppm) [1, 7]: 20%
- Kill rate/% after 6 days, +RME (1000 ppm) [1, 8]: 25%
- Kill rate/% after 6 days, +RME + AS (each 1000 ppm) [1, 9]: 70%
- Kill rate/% after 6 days, a.i. [1, 10]: 5%
- Kill rate/% after 6 days, +AS (1000 ppm) ([1]; active substance 100 ppm + ammonium sulfate 1000 ppm): 80%
- Kill rate/% after 6 days, +RME (1000 ppm) ([1]; active substance 100 ppm + rape oil methyl ester 1000 ppm): 99%
- Kill rate/% after 6 days, +RME + AS (each 1000 ppm) ([1]; active substance 100 ppm + rape oil methyl ester and ammonium sulfate, each 1000 ppm): 100%
- Kill rate/% after 6 days, a.i. ([1]; active substance 100 ppm, no additive): 75%

SMILES: COc1cccc(S(=O)(=O)NC(C)C)c1C#N [Example 41]
- Kill rate/% after 7 days, +AS (1000 ppm) ([3]; Table D2, active substance 2.4 g/ha + ammonium sulfate 1000 ppm, emulsifier 1 part): 80%
- Kill rate/% after 7 days, +RME (1000 ppm) ([3]; Table D2, active substance 2.4 g/ha + rape oil methyl ester 1000 ppm, emulsifier 1 part): 10%
- Kill rate/% after 7 days, +RME + AS (each 1000 ppm) ([3]; Table D2, active substance 2.4 g/ha + rape oil methyl ester and ammonium sulfate, each 1000 ppm, emulsifier 1 part): 93%
- Kill rate/% after 7 days, a.i. ([3]; Table D2, active substance 2.4 g/ha, no additive, emulsifier 1 part): 50%

SMILES: C=CCNS(=O)(=O)c1cccc(OC)c1C#N [Example 44]
- Kill rate/% after 6 days, +AS (1000 ppm) [4, 6]: 25%
- Kill rate/% after 6 days, a.i. [4, 11]: 5%
- Kill rate/% after 6 days, +AS (1000 ppm) [1, 6]: 15%
- Kill rate/% after 6 days, +RME (1000 ppm) ([1]; active substance 4 ppm + rape oil methyl ester 1000 ppm): 20%
- Kill rate/% after 6 days, +RME + AS (each 1000 ppm) ([1]; active substance 4 ppm + rape oil methyl ester and ammonium sulfate, each 1000 ppm): 30%
- Kill rate/% after 6 days, a.i. [1, 11]: 10%
- Kill rate/% after 6 days, +AS (1000 ppm) [1, 7]: 70%
- Kill rate/% after 6 days, +RME (1000 ppm) [1, 8]: 85%
- Kill rate/% after 6 days, +RME + AS (each 1000 ppm) [1, 9]: 98%
- Kill rate/% after 6 days, a.i. [1, 10]: 85%
- Kill rate/% after 6 days, +AS (1000 ppm) ([3]; Table D1, active substance 4 ppm + ammonium sulfate 1000 ppm): 25%
- Kill rate/% after 6 days, +RME (1000 ppm) ([3]; Table D1, active substance 4 ppm + rape oil methyl ester 1000 ppm): 45%
- Kill rate/% after 6 days, +RME + AS (each 1000 ppm) ([3]; Table D1, active substance 4 ppm + rape oil methyl ester and ammonium sulfate, each 1000 ppm): 55%
- Kill rate/% after 6 days, a.i. ([3]; Table D1, active substance 4 ppm, no additive): 5%
- Kill rate/% after 6 days, +AS (1000 ppm) [5, 7]: 70%
- Kill rate/% after 6 days, a.i. [5, 10]: 40%
